Measurements reported in US20250090437A1, “COSMETIC COMPOUNDING AGENT, COSMETIC AND PRODUCTION METHOD THEREOF” (MIYOSHI OIL & FAT CO., LTD., priority 2019, published 2025).
Blank lines part the entries; values can stand above or below the molecule they belong to.

Experiments:
[1] = Water retention property test 1; assay type: physicochemical; details: 80 wt % aqueous solution; for Water retention property test 1 Post-test moisture rate / Water retention property test 1 Rate of reduction in moisture / Post-test moisture rate / Rate of reduction in moisture: 24 hours at 40° C. and 25% RH; for Pre-test moisture rate: before the test (Karl Fischer); for Post-test moisture rate / Rate of reduction in moisture: unsealed
Experimental: A moisture rate after 24 hours was again measured (post-test moisture rate: B), followed by using the formula below to calculate a rate of reduction in moisture so as to evaluate the water retention property. • Pre-test moisture rate: A (%) • Post-test moisture rate: B (%)

[2] = Water confinement property test (barrier property); assay type: physicochemical; details: 80 wt % aqueous solution, 0.01 mL/cm^2 on filter paper, 40° C. and 25% RH, 24 hours
Experimental: Next, 20.0 g of an ion-exchange water was put into a 40 mL pierce vial bottle (by AS ONE Corporation.), followed by removing an inner lid (rubber plug) of the pierce vial bottle, placing on the pierce vial bottle the filter paper to which each sample had been applied, and then plugging the bottle with an outer lid.
Further, Wm1, Wm2, Sm1 and Sm2 in the formula below respectively represent the following numerical values.
Wm1: Weight of ion-exchange water in vial before storage (using filter paper to which only ion-exchange water had been applied)
Wm2: Weight of ion-exchange water in vial after 24 hours (using filter paper to which only ion-exchange water had been applied)
Sm1: Weight of ion-exchange water in vial before storage (using filter paper to which sample had been applied)
Sm2: Weight of ion-exchange water in vial after 24 hours (using filter paper to which sample had been applied)

[3] = Water retention property and adherability with respect to healthy hair; set-up: species or system human; details: for Compound adhesion rate / Post-test moisture rate: healthy hair immersed 60 min in 80 wt % aqueous solution; for Post-test moisture rate: after 24 hours at 40° C., pre-test 7.6%; for Post-test moisture rate / Rate of reduction in moisture: 35 to 40% RH; for Rate of reduction in moisture: healthy hair, 80 wt % aqueous solution, 24 hours at 40° C.
Experimental: In the following evaluations, a human black hair produced by Beaulax Co., Ltd was used as a healthy hair. A damaged hair was prepared by repeatedly having the healthy hair permed and bleached three times.
An 80 wt % aqueous solution of each of the compounds B1 to B26 (content in terms of anhydride in the cases of the compounds B1 to B23) was prepared, followed by using a Karl Fischer moisture meter (KF-200 by Mitsubishi Chemical Analytech Co., Ltd.) to confirm that a moisture rate was 20.0 wt %. As a healthy hair, there was used a chemically untreated healthy hair (human black hair by Beaulax Co., Ltd). The moisture rate (pre-test moisture rate A) of the hair was measured by an infrared moisture meter (by Kett Electric Laboratory).
After immersion, the hair was taken out, and KimWipes were then used to wipe off the compound until a change in weight was no longer observed, followed by measuring the weight of the hair (post-test hair weight B). The hair from which the compound had been wiped off was then placed into a thermo-hygrostat set to 40° C. and 35 to 40% RH. A moisture rate after 24 hours (post-test moisture rate B) was then measured, followed by calculating a rate of reduction in moisture with the following formula. Likewise, instead of the 80 wt % aqueous solution, evaluation was also performed in a similar manner using only an ion-exchange water (comparative example B4).
Further, an adhesion rate of the compound adhering to the hair was calculated with the following formula. […]

[4] = Water retention property test 3 (long term); assay type: physicochemical; details: for Amount of moisture reduction in 0 to 24 h / Amount of moisture reduction in 24 to 96 h / Amount of moisture reduction per hour / Pre-test moisture rate / Moisture rate after 24 h / Moisture rate after 96 h / Amount of moisture reduction in 96 to 120 h / Moisture rate after 120 h: 80 wt % aqueous solution; for Amount of moisture reduction in 0 to 24 h / Amount of moisture reduction in 24 to 96 h / Amount of moisture reduction in 96 to 120 h: 1.0 g; for Amount of moisture reduction in 0 to 24 h / Amount of moisture reduction in 24 to 96 h / Amount of moisture reduction per hour / Moisture rate after 24 h / Moisture rate after 96 h / Amount of moisture reduction in 96 to 120 h / Moisture rate after 120 h: 40° C. and 25% RH; for Pre-test moisture rate: before the test; for Moisture rate after 24 h / Moisture rate after 96 h / Moisture rate after 120 h: unsealed
Experimental: In a water retention property test 3, an 80 wt % aqueous solution of each of the compounds C8, C11, C62, C63 and C64 was prepared, followed by using a Karl Fischer moisture meter to confirm that a moisture rate was 20.0 wt %. Next, 1.0 g of each of these samples was added to a screw tube, and this screw tube, while remaining unsealed, was then left to stand still in a thermo-hygrostat set to 40° C. and 25% RH. […] In addition, the water retention property was evaluated by calculating an amount of moisture reduction per hour (mg/h) based on each amount of moisture reduction (mg).

- Water retention property test 1 Pre-test moisture rate [1]: 20.0%
- Water retention property test 1 Post-test moisture rate [1]: 19.2%
- Water retention property test 1 Rate of reduction in moisture [1]: 4.7%
- Water evaporation inhibition rate [2]: 34.8%
SMILES: CC(C)(CO)CO [Compound C47]

- Water evaporation inhibition rate [2]: 35.4%
SMILES: CC(CO)(CO)CO [Compound C77]

SMILES: NC(CO)(CO)CO.O=C(O)CC(O)(CC(=O)O)C(=O)O [Compound B13]
- Compound adhesion rate [3]: 2.3%
- Post-test moisture rate [3]: 6.5%
- Rate of reduction in moisture [3]: 15%

- Water retention property test 1 Pre-test moisture rate [1]: 20.0%
- Water retention property test 1 Post-test moisture rate [1]: 19.3%
- Water retention property test 1 Rate of reduction in moisture [1]: 4.4%
- Water evaporation inhibition rate [2]: 39.7%
SMILES: CC(C)(C)CO [Compound C43]

- Pre-test moisture rate [1]: 20.0%
- Post-test moisture rate [1]: 19.1%
- Rate of reduction in moisture [1]: 4.5%
- Water evaporation inhibition rate [2]: 35.6%
SMILES: CC(CO)(CO)CO [Compound C51]

- Pre-test moisture rate [1]: 20.0%
- Post-test moisture rate [1]: 18.8%
- Rate of reduction in moisture [1]: 5.8%
- Water evaporation inhibition rate [2]: 30.3%
SMILES: CC(CO)(CO)CO [Compound C54]

SMILES: CCCC[N+](CCCC)(CCCC)CCCC.[Br-] [Comparative example C13]
- Amount of moisture reduction in 0 to 24 h ([4]; 0~24 h): 49.1 mg
- Amount of moisture reduction in 24 to 96 h ([4]; 24~96 h): 145.8 mg
- Amount of moisture reduction per hour ([4]; 0~24 h): 2.0 mg/h
- Amount of moisture reduction per hour ([4]; 24~96 h): 2.0 mg/h
- Pre-test moisture rate [4]: 20.0%
- Moisture rate after 24 h [4]: 15.9%
- Moisture rate after 96 h [4]: 0.7%

SMILES: O [Compound B21]
- Compound adhesion rate [3]: 1.1%
- Post-test moisture rate [3]: 5.8%
- Rate of reduction in moisture [3]: 24%

- Pre-test moisture rate [1]: 20.0%
- Post-test moisture rate [1]: 19.1%
- Rate of reduction in moisture [1]: 4.4%
- Water evaporation inhibition rate [2]: 34.6%
SMILES: CC(CO)(CO)CO [Compound C53]

- Pre-test moisture rate [1]: 20.0%
- Post-test moisture rate [1]: 18.4%
- Rate of reduction in moisture [1]: 7.9%
- Water evaporation inhibition rate [2]: 34.1%
SMILES: CC(CO)(CO)CO [Compound C55]

- Water evaporation inhibition rate [2]: 39.4%
SMILES: CC(C)(CO)CO [Compound C65]

SMILES: NC(CO)(CO)CO.O=C(O)CC(O)(CC(=O)O)C(=O)O [Compound C82]
- Water evaporation inhibition rate [2]: 35.8%

- Pre-test moisture rate [1]: 20.0%
- Post-test moisture rate [1]: 19.1%
- Rate of reduction in moisture [1]: 4.4%
- Water evaporation inhibition rate [2]: 39.1%
SMILES: CC(CO)(CO)CO [Compound C50]

SMILES: CS(=O)(=O)O.NC(CO)CO [Working example C118]
- Amount of moisture reduction in 0 to 24 h ([4]; 0~24 h): 6.5 mg
- Amount of moisture reduction in 24 to 96 h ([4]; 24~96 h): 20.0 mg
- Amount of moisture reduction in 96 to 120 h ([4]; 96~120 h): 4.1 mg
- Amount of moisture reduction per hour ([4]; 0~24 h): 0.3 mg/h
- Amount of moisture reduction per hour ([4]; 24~96 h): 0.3 mg/h
- Amount of moisture reduction per hour ([4]; 96~120 h): 0.2 mg/h
- Pre-test moisture rate [4]: 20.0%
- Moisture rate after 24 h [4]: 19.4%
- Moisture rate after 96 h [4]: 17.6%
- Moisture rate after 120 h [4]: 15.4%
- Moisture rate of hydrate [4]: 16.1%

SMILES: NC(CO)(CO)CO.O=C(O)CO [Compound B14]
- Compound adhesion rate [3]: 1.3%
- Post-test moisture rate [3]: 7.4%
- Rate of reduction in moisture [3]: 3%

SMILES: O [Compound B8]
- Compound adhesion rate [3]: 1.3%
- Post-test moisture rate [3]: 6.1%
- Rate of reduction in moisture [3]: 20%

- Pre-test moisture rate [1]: 20.0%
- Post-test moisture rate [1]: 11.7%
- Rate of reduction in moisture [1]: 41.7%
- Water evaporation inhibition rate [2]: 25.7%
SMILES: CCCCn1cc[n+](C)c1.F[B-](F)(F)F [Compound C63, 1-butyl-3-methylimidazolium tetrafluoroborate, reference compound]

SMILES: NC(CO)(CO)CO.O=C1OC(C(O)CO)C(O)=C1O (centres unmarked) [Compound B20]
- Compound adhesion rate [3]: 2.1%
- Post-test moisture rate [3]: 6.6%
- Rate of reduction in moisture [3]: 14%

- Pre-test moisture rate [1]: 20.0%
- Post-test moisture rate [1]: 18.6%
- Rate of reduction in moisture [1]: 7.1%
- Water evaporation inhibition rate [2]: 36.8%
SMILES: CC(CO)(CO)CO [Compound C52]

SMILES: CCCCn1cc[n+](C)c1.[Cl-] [Compound B25, 1-butyl-3-methylimidazolium chloride, reference compound]
- Compound adhesion rate [3]: 1.0%
- Post-test moisture rate [3]: 4.0%
- Rate of reduction in moisture [3]: 47%

SMILES: C[N+](C)(C)CCO.O=C([O-])CO [Compound C28]
- Water retention property test 1 Pre-test moisture rate [1]: 20.0%
- Water retention property test 1 Post-test moisture rate [1]: 19.4%
- Water retention property test 1 Rate of reduction in moisture [1]: 3.0%

SMILES: CS(=O)(=O)O.NC(CO)(CO)CO [Compound C83]
- Water evaporation inhibition rate [2]: 31.3%

SMILES: CC(=O)CCC(=O)O.NC(CO)(CO)CO [Compound B17]
- Compound adhesion rate [3]: 6.9%
- Post-test moisture rate [3]: 6.5%
- Rate of reduction in moisture [3]: 15%

SMILES: CC(O)C(=O)O.NCCCCCC(=O)O [Compound C61]
- Pre-test moisture rate [1]: 20.0%
- Post-test moisture rate [1]: 18.1%
- Rate of reduction in moisture [1]: 9.9%

SMILES: CC(O)C(=O)O.NCCCC(=O)O [Compound C60]
- Pre-test moisture rate [1]: 20.0%
- Post-test moisture rate [1]: 18.1%
- Rate of reduction in moisture [1]: 9.9%

- Amount of moisture reduction in 0 to 24 h ([4]; 0~24 h): 64.3 mg
- Amount of moisture reduction in 24 to 96 h ([4]; 24~96 h): 134.4 mg
- Amount of moisture reduction per hour ([4]; 0~24 h): 2.7 mg/h
- Pre-test moisture rate [4]: 20.0%
- Moisture rate after 24 h [4]: 14.5%
- Moisture rate after 96 h [4]: 0.0%
SMILES: CCCCn1cc[n+](C)c1.F[B-](F)(F)F [Comparative example C14]

SMILES: O=C1OC(C(O)CO)C(O)=C1O.OCCNCCO (centres unmarked) [Compound C41]
- Water retention property test 1 Pre-test moisture rate [1]: 20.0%
- Water retention property test 1 Post-test moisture rate [1]: 19.2%
- Water retention property test 1 Rate of reduction in moisture [1]: 4.1%

- Water retention property test 1 Pre-test moisture rate [1]: 20.0%
- Water retention property test 1 Post-test moisture rate [1]: 19.2%
- Water retention property test 1 Rate of reduction in moisture [1]: 4.7%
SMILES: CC(C)(C)CO [Compound C44]

- Amount of moisture reduction in 0 to 24 h ([4]; 0~24 h): 24.6 mg
- Amount of moisture reduction in 24 to 96 h ([4]; 24~96 h): 74.8 mg
- Amount of moisture reduction in 96 to 120 h ([4]; 96~120 h): 25.0 mg
- Amount of moisture reduction per hour ([4]; 0~24 h): 1.0 mg/h
- Amount of moisture reduction per hour ([4]; 24~96 h): 1.0 mg/h
- Amount of moisture reduction per hour ([4]; 96~120 h): 1.0 mg/h
- Pre-test moisture rate [4]: 20.0%
- Moisture rate after 24 h [4]: 18.0%
- Moisture rate after 96 h [4]: 11.1%
- Moisture rate after 120 h [4]: 8.6%
SMILES: OCC(O)CO [Comparative example C15]

SMILES: CC(N)(CO)CO.NCCCCCC(=O)O [Compound C76]
- Water evaporation inhibition rate [2]: 35.7%

SMILES: CC(O)C(=O)O.NC(CO)CO (centres unmarked) [Working example C117]
- Amount of moisture reduction in 0 to 24 h ([4]; 0~24 h): 6.7 mg
- Amount of moisture reduction in 24 to 96 h ([4]; 24~96 h): 20.1 mg
- Amount of moisture reduction in 96 to 120 h ([4]; 96~120 h): 4.0 mg
- Amount of moisture reduction per hour ([4]; 0~24 h): 0.3 mg/h
- Amount of moisture reduction per hour ([4]; 24~96 h): 0.3 mg/h
- Amount of moisture reduction per hour ([4]; 96~120 h): 0.2 mg/h
- Pre-test moisture rate [4]: 20.0%
- Moisture rate after 24 h [4]: 19.5%
- Moisture rate after 96 h [4]: 17.8%
- Moisture rate after 120 h [4]: 15.8%
- Moisture rate of hydrate [4]: 16.6%
